Literature values as cited in patent US20190209686A1, “PULSE PHOTODYNAMIC TREATMENT OF ACNE” (GALDERMA RESEARCH & DEVELOPMENT, priority 2013, published 2019).
Like-named read-outs stand apart in the source and are kept apart here.

What was measured:
[1] = system: acne; settings: cream 16% wt., 3 hours, non-coherent red light
[2] = system: acne; settings: 20%, 3 hours, 150 J/cm2 broad band light

| SMILES | side effects of PDT reported by subjects [1] | efficacy of PDT in acne ([1]; repeated 2 weeks later) | efficacy of PDT in acne [2] | side effects after PDT [2] |
| --- | --- | --- | --- | --- |
| COC(=O)CCC(=O)CN [methyl ALA ester, 5-ALA methyl ester] | caused pain and induced severe inflammation | effective in the treatment of acne | – | – |
| NCC(=O)CCC(=O)O [ALA acid, 5-amino-4-oxo-pentanoic acid] | – | – | effective for the treatment of acne | erythema, hyperpigmentation and exfoliation were often seen after PDT treatment |
